Reference: patent US12030893B2, “Near-infrared nerve-sparing benzo[c]phenoxazine fluorophores” (OREGON HEALTH & SCIENCE UNIVERSITY, priority 2018, dated 2024)

Key:
[1] = system: murine brachial plexus and sciatic nerves; experiment: In vivo nerve-specificity screening via direct/topical administration; set-up: species or system mice; details: 500 μM in co-solvent formulation, 100 μL incubated 5 minutes on exposed nerve, imaged 30 minutes after staining; selected for further systemic screening
Protocol: Each compound was screened for its tissue-specificity using a previously published direct/topical administration strategy in murine brachial plexus and sciatic nerves.^1 Each compound from the benzo[c]phenoxazine library was formulated in the previously utilized co-solvent formulation (10% DMSO, 5% Kolliphor, 65% serum and 20% phosphate buffered saline) at 500 μM. 100 μL of the formulated Oxazine were incubated on the exposed brachial plexus or sciatic nerve for 5 minutes. The fluorophore containing solution was removed and the area was irrigated with saline 18 times to remove any unbound fluorophore. Co-registered fluorescence and color images were collected of each stained area 30 minutes after benzo[c]phenoxazine direct/topical administration using a custom built macroscopic imaging system with 710/75 nm excitation and 810 nm longpass emission filters. Custom written MatLab code was used to analyze the tissue specific fluorescence where regions of interest were selected on the nerve, muscle, cut muscle and adipose tissue using the white light images. These regions of interest were then analyzed on the co-registered matched fluorescence images permitting assessment of the nerve-to-muscle, nerve-to-cut muscle, and nerve-to-adipose ratios in blinded manner.
(§1) In vivo nerve-specificity screening of the benzo[c]phenoxazine derivative library. Each compound was screened for its tissue-specificity using a direct administration strategy (Barth & Gibbs, Theranostics 7, 573-593 (2017)) where nerve contrast was examined in murine brachial plexus and sciatic nerves. The benzo[c]phenoxazine derivatives were solubilized for in vivo use in the previously described co-solvent formulation (Gibbs-Strauss et al., Molecular imaging 10, 91-101 (2011)). The previously optimized staining procedure was utilized (Gibbs et al., PloS one 8, e73493 (2013)), which is described briefly as follows. The brachial plexus and sciatic nerves were surgically exposed by removal of overlaying adipose and muscle tissues. The benzo[c]phenoxazine compound was formulated at 500 μM in the co-solvent formulation and 100 μL was incubated on the exposed brachial plexus or sciatic nerve for 5 minutes. The fluorophore containing solution was removed and the area was irrigated with saline nine times, followed by a five-minute incubation with blank formulation and then irrigation with saline nine more times to remove any unbound fluorophore. Images were acquired 30 minutes following completion of staining. Unstained nerve sites were used for all control images to quantify autofluorescence. Each benzo[c]phenoxazine derivative was screened in n=3 mice or 6 nerve sites/fluorophore. The quantified tissue fluorescence intensities following direct administration of the fluorophores were used to calculate nerve-to-muscle, nerve-to-cut muscle, and nerve-to-adipose ratios as metrics of nerve contrast. […] Uninjected animals were used for all control images to quantify autofluorescence. Similarly to quantification protocol for the direct administration, the quantified tissue fluorescence intensities following systemic administration of the fluorophores were used to calculate nerve-to-muscle and nerve-to-adipose ratios as metrics of nerve contrast. […]
Intraoperative fluorescence imaging systems. A custom-built small animal imaging system capable of real-time color and fluorescence imaging was used to acquire in vivo rodent images (Hackman et al., Molecular pharmaceutics (2015)). […]

[2] = system: murine brachial plexus and sciatic nerves; experiment: In vivo nerve-specificity screening via systemic administration; set-up: species or system mice; details: 500 nmol intravenously in co-solvent formulation; sacrificed at 0.5 h, 1 h, 2 h, 4 h
Protocol: Each compound was screened for its tissue-specificity using a previously published systemic administration strategy in murine brachial plexus and sciatic nerves.^1 Each compound from the benzo[c]phenoxazine library was formulated in the previously utilized co-solvent formulation (10% DMSO, 5% Kolliphor, 65% serum and 20% phosphate buffered saline) at 2.5 mM. 200 μL of the formulated fluorophore was administered intravenously before exposing the brachial plexus and sciatic nerves. Co-registered fluorescence and color images were collected of each nerve site using a custom built macroscopic imaging system with 710/75 nm excitation and 810 nm longpass emission filters. Custom written MatLab code was used to analyze the tissue specific fluorescence where regions of interest were selected on the nerve, muscle and adipose tissue using the white light images. These regions of interest were then analyzed on the co-registered matched fluorescence images permitting assessment of the nerve to muscle and nerve to adipose ratios in blinded manner.
as §1, with “The brachial plexus and sciatic nerves were surgically exposed by removal of overlaying adipose and muscle tissues. The benzo[c]phenoxazine compound was formulated at 500 μM in the co-solvent formulation and 100 μL was incubated on the exposed brachial plexus or sciatic nerve for 5 minutes. The fluorophore containing solution was removed and the area was irrigated with saline nine times, followed by a five-minute incubation with blank formulation and then irrigation with saline nine more times to remove any unbound fluorophore. Images were acquired 30 minutes following completion of staining.” left out, “Each benzo[c]phenoxazine derivative was screened in n=3 mice or 6 nerve sites/fluorophore.” left out
Intraoperative fluorescence imaging systems. A custom-built small animal imaging system capable of real-time color and fluorescence imaging was used to acquire in vivo rodent images (Hackman et al., Molecular pharmaceutics (2015)). Briefly, the imaging system consisted of a QImaging EXi Blue monochrome camera (Surrey, British Columbia, CA) for fluorescence detection with a removable Bayer filter for collection of co-registered color and fluorescence images. […]

[3] = longest among reported nerve-specific fluorophores; cited from earlier work

CCN(CC)c1ccc2c3c(ccc2c1)N=c1cc2c(cc1O3)=NCCC2 [LGW07-14, 3-(diethylamino)-10,11-dihydro-9H-benzo[h]pyrido[3,2-b]phenoxazin-12-ium]
outcome of nerve-specificity screening (nerve-to-muscle, nerve-to-cut muscle, nerve-to-adipose ratios) following direct administration [1]: lead candidates
outcome of nerve-specificity screening (nerve-to-muscle, nerve-to-adipose ratios) following systemic administration [2]: selected as lead benzo[c]phenoxazine nerve-specific fluorophores

CCN(CC)c1ccc2c(ccc3nc4ccc(=[N+](C)C)cc-4oc32)c1 [LGW07-92, N-(3-(diethylamino)-10H-benzo[c]phenoxazin-10-ylidene)-N-methylmethanaminium]
outcome of nerve-specificity screening (nerve-to-muscle, nerve-to-cut muscle, nerve-to-adipose ratios) following direct administration [1]: lead candidates

CC/N=c1\ccc2nc3ccc4cc(N(CC)CC)ccc4c3oc-2c1C [LGW08-35, (E)-N-(3-(diethylamino)-11-methyl-10H-benzo[c]phenoxazin-10-ylidene)ethanaminium]
outcome of nerve-specificity screening (nerve-to-muscle, nerve-to-cut muscle, nerve-to-adipose ratios) following direct administration [1]: lead candidates
outcome of nerve-specificity screening (nerve-to-muscle, nerve-to-adipose ratios) following systemic administration [2]: selected as lead benzo[c]phenoxazine nerve-specific fluorophores

CC/N=c1/cc2oc3c(ccc4cc(N(CC)CC)ccc43)nc-2c(C)c1 [LGW08-46, (E)-N-(3-(diethylamino)-8-methyl-10H-benzo[c]phenoxazin-10-ylidene)ethanaminium]
outcome of nerve-specificity screening (nerve-to-muscle, nerve-to-cut muscle, nerve-to-adipose ratios) following direct administration [1]: lead candidates
outcome of nerve-specificity screening (nerve-to-muscle, nerve-to-adipose ratios) following systemic administration [2]: selected as lead benzo[c]phenoxazine nerve-specific fluorophores

CC/N=c1/cc2oc3c(ccc4cc(N(CC)CC)ccc43)nc-2cc1C [LGW 05-25, (Z)—N-(3-(diethylamino)-9-methyl-10H-benzo[c]phenoxazin-10-ylidene)ethanaminium]
outcome of nerve-specificity screening (nerve-to-muscle, nerve-to-cut muscle, nerve-to-adipose ratios) following direct administration [1]: lead candidates
outcome of nerve-specificity screening (nerve-to-muscle, nerve-to-adipose ratios) following systemic administration [2]: selected as lead benzo[c]phenoxazine nerve-specific fluorophores

CC/N=c1/cc2oc3cc(NCC)c(C)cc3nc-2cc1C [Oxazine 4]
emission wavelength maximum [3]: 635 nm
